The target of the data set is T1, OATP2B1 (Homo sapiens, UniProt O94956).
T1 construct: expressed in transfected cells; host or cells: A431 epidermoid carcinoma cells
T1 sequence (O94956 1-709): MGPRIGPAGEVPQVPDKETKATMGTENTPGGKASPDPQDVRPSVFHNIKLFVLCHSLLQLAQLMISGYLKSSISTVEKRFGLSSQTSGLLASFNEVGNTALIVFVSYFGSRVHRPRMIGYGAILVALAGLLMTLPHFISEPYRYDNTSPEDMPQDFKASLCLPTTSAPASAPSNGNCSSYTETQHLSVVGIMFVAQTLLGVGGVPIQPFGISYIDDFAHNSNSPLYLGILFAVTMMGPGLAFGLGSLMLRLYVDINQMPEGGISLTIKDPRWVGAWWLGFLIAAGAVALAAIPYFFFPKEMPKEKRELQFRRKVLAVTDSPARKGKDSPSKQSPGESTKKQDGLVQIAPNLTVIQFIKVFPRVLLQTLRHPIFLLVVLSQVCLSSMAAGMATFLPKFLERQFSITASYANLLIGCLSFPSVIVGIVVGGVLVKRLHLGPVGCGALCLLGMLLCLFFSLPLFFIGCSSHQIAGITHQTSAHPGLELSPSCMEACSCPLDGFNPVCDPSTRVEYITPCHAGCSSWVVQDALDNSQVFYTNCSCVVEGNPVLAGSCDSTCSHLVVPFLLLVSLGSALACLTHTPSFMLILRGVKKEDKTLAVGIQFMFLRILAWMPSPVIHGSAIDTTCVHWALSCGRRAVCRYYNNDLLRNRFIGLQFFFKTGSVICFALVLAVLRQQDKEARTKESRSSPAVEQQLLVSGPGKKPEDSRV
Briefly: OATP uptake assay, OATP2B1. It is filed as cell-based. The conditions noted are these: human, 20 μM. Here is the method: Cell lines: A431 cells overexpressing OATP1B1 or OATP2B1, and their mock transfected controls were generated and characterized previously. The cell lines were cultured in DMEM (Gibco, Thermofisher Scientific, Waltham, MA, USA), supplemented with 10% fetal bovine serum, 2 mM L-glutamine, 100 μg/mL streptomycin, and 100 units/mL penicillin at 37 °C and 5% CO2.
OATP uptake assay: Prior to the experiment, A431 cells (8 × 10^4/well) were seeded on 96-well plates in 200 μL cell culture medium. After 16–24 h, the cells were washed with 200 μL PBS, three times and pre-incubated with 20–200 μM HQNO2-L-Pro, or buffer without HQNO2-L-Pro for 5 min at 37 °C in 50 μL HBSS (Hank’s Balanced Salt Solution, pH 7.4; OATP1B1) or uptake buffer (pH 5.5; OATP2B1 [63]). The reaction was started by the addition of disulfopyrene (6,8-dihydroxy-1,3-pyrenedisulfonic acid disodium salt, Sigma, Darmstadt, Germany) at a final concentration of 10 μM (OATP1B1) or pyranine (8-hydroxypyrene-1,3-pyrenetrisulfonic acid trisodium salt, Sigma, Darmstadt, Germany) at a final concentration of 20 μM (OATP2B1), and the cells were further incubated at 37 °C for 10 min (OATP1B1) or 15 min (OATP2B1). The reaction was stopped by removing the supernatant after which the cells were washed three times with ice-cold PBS. Fluorescence (in 200 μL PBS) was determined using an Enspire plate reader (PerkinElmer, Waltham, MA, USA) with excitation/emission wavelengths of 460/510 nm. OATP-dependent transport was calculated by subtracting fluorescence measured in mock transfected cells. Transport activity was calculated based on the fluorescence signal in the absence (100%) of HQNO2-L-Pro. Experiments were repeated in at least three biological replicates.

This note sets out measurements from publication PMC9820345, “Metal Complexes of a 5-Nitro-8-Hydroxyquinoline-Proline Hybrid with Enhanced Water Solubility Targeting Multidrug Resistant Cancer Cells” (International Journal of Molecular Sciences, 2022).

Take `O=C(O)[C@@H]1CCCN1Cc1cc([N+](=O)[O-])c2cccnc2c1O` [HQNO2-L-Pro, (2S)-1-((8-hydroxy-5-nitroquinolin-7-yl)methyl)pyrrolidin-1-ium-2-carboxylate]: for the setting “A431 cells overexpressing OATP2B1, pH 5.5, probe pyranine, 10 μM, absence of compound = 100%, n = 3, ± SD, read-out: transport activity % OATP2B1”, the activity at 15 min, 10 µM is 98.2 ± 5.5%. In addition, for the setting “A431 cells overexpressing OATP2B1, pH 5.5, probe pyranine, 100 μM, absence of compound = 100%, n = 3, ± SD, read-out: transport activity % OATP2B1”, the activity at 15 min, 100 µM is 83.3 ± 9.7%. The inhibition at 15 min, 100 µM (probe pyranine, at 100 μM, A431 cells overexpressing OATP2B1, pH 5.5, read-out: inhibition of OATP2B1 function) is below 20%.

By inhibition is commonly meant the relative decrease from the control value, in per cent.
